Values of other authors in patent publication US10813571B2, “Devices and methods for non-invasive monitoring of substance in a body” (TATA C[…] LIMITED, priority 2015, dated 2020).

Conditions: in the user's (smoker's) body; as known in the art

SMILES: CN1CCCC1c1cccnc1 (stereo not shown) [nicotine]
- half-life of nicotine in the body (t1/2): 1 to 2 h
